Several values for one entry are separate records, joined by “and”; a condition that tells them apart may be missing. Equal entries are not always repeated.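 All cell lines were grown in 96-well plates and treated with compound for 48 hours. Here, GI50 denotes the concentration required for 50% inhibition of growth. TGI: total growth inhibition.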
How the values were obtained:
Assay in all cases: inhibition of tumour cell growth, NCI panel, 48 h
RXF 393 renal = test system: RXF 393 renal
KM12 colon = test system: KM12 colon
MDA-MB-231 breast = test system: MDA-MB-231 breast
UO-31 renal = test system: UO-31 renal
LOX IMVI melanoma = test system: LOX IMVI melanoma
K-562 leukemia = test system: K-562 leukemia
NCI-H460 lung = test system: NCI-H460 lung
SNB-75 CNS = test system: SNB-75 CNS
NCI-H226 lung = test system: NCI-H226 lung
M14 melanoma = test system: M14 melanoma

SMILES | GI50 (RXF 393 renal) | TGI (RXF 393 renal) | GI50 (KM12 colon) [µM] | TGI (KM12 colon) [µM] | GI50 (MDA-MB-231 breast) [µM] | TGI (MDA-MB-231 breast) [µM] | GI50 (UO-31 renal) | TGI (UO-31 renal) | GI50 (LOX IMVI melanoma) [µM] | TGI (LOX IMVI melanoma) [µM] | GI50 (K-562 leukemia) [µM] | TGI (K-562 leukemia) [µM] | GI50 (NCI-H460 lung) | TGI (NCI-H460 lung) [µM] | GI50 (SNB-75 CNS) [µM] | TGI (SNB-75 CNS) | GI50 (NCI-H226 lung) [µM] | TGI (NCI-H226 lung) [µM] | GI50 (M14 melanoma) | TGI (M14 melanoma)
O=c1ccn(C2CC(O)C(CO)O2)c(=O)[nH]1 (stereo not given) | > 5000 µM | > 5000 µM | > 5000 | > 5000 | > 5000 | > 5000 | > 5000 µM | > 5000 µM | > 5000 | > 5000 | > 5000 | > 5000 | > 5000 µM | > 5000 | > 5000 | > 5000 µM | > 5000 | > 5000 | > 5000 µM | > 5000 µM
O=C(Cn1c(=O)c(-c2ccccc2)nc2ccccc21)Nc1ccc(F)cc1 | 35.5 µM | > 100 µM | > 100 | > 100 | 99.7 | > 100 | > 100 µM | > 100 µM | > 100 | > 100 | 35.8 | > 100 | > 100 µM | > 100 | 38.8 | > 100 µM | > 100 | > 100 | > 100 µM | > 100 µM
COc1cc(NC(C)CCCN)c2ncccc2c1 (stereo not given) | 17.1 µM and 37.4 µM | > 79.6 µM and 100 µM | – | > 100 | – | > 100 | 15.2 µM and 42.9 µM | 57.8 µM and > 100 µM | – | > 100 | – | > 100 | 32.8 µM and > 94.8 µM | > 100 | – | > 100 µM and 80.5 µM | – | > 100 | 16.8 µM and 43.1 µM | 34.5 µM and > 73.6 µM
COC(=O)[C@@]12OC[C@]34[C@H]([C@@H](O)[C@@H]1O)[C@@]1(C)[C@H](O)C(=O)C=C(C)[C@@H]1C[C@H]3OC(=O)C(OC(C)=O)[C@@H]24 (stereo not given in full) | 0.0253 µM | 0.0673 µM | 0.03 | 0.136 | 0.0979 | 0.366 | 0.113 µM | 0.449 µM | 0.0152 | 0.0311 | 0.0314 | – | 0.0183 µM | 0.0524 | 0.0273 | 0.121 µM | 0.025 | 0.0992 | 0.0261 µM | 0.0785 µM
Cc1cc(Cl)ccc1Nc1nc(C(F)(F)F)ccc1C(=O)N/N=C/c1ccc(Cl)cc1 | 3.08 µM | 22.2 µM | 2.08 | 7.24 | 1.09 | 4.22 | 1.5 µM | 6.04 µM | 1.38 | 11.7 | 1.83 | 8.22 | 2.37 µM | 9.08 | 1.51 | 6.48 µM | 1.21 | 3.82 | 2.34 µM | 7.63 µM
O=C1c2cccc(NCCN=Cc3cc([N+](=O)[O-])ccc3O)c2C(=O)c2c(NCCN=Cc3cc([N+](=O)[O-])ccc3O)cccc21 | 7.01 µM | > 100 µM | 2.8 | > 100 | 3.12 | 71.7 | 8.34 µM | > 100 µM | 2.62 | 29.1 | 3.67 | > 100 | – | – | 2.16 | 19 µM | 3.34 | > 100 | 26.8 µM | > 100 µM
COc1cc2ccccc2oc1=O | – | 48.5 µM | – | > 100 | – | > 100 | – | > 100 µM | – | > 100 | – | > 100 | – | > 100 | – | > 100 µM | – | > 100 | – | > 100 µM
CC1OC(n2c3ccccc3c3c4c(c5c6ccccc6[nH]c5c32)C(=O)N(CCN[C@@H]2CCC[C@H]2N)C4=O)CC(O)C1O (stereo not given in full) | 1.68 µM | 7.45 µM | 1.35 | 6.11 | 1.88 | 8.16 | 6.45 µM | 15 µM | 0.835 | 2.68 | 0.85 | 2.76 | 0.744 µM | 1.57 | 0.918 | 5.68 µM | 1.79 | 8.82 | 1.63 µM | 7.14 µM
O=C(Nc1ccncc1)C(=O)c1cn(Cc2ccc(Cl)cc2)c2ccccc12 | 0.0302 µM | – | 0.0384 | > 100 | 0.179 | > 100 | 0.0788 µM | > 100 µM | 0.0574 | > 100 | 0.0265 | 34.8 | 0.0585 µM | > 100 | 0.0375 | 3.79 µM | 0.276 | > 100 | 0.048 µM | > 100 µM
CCCc1cc(=O)[nH]c(-n2nc(C)cc2C)n1 | 18.6 µM | > 100 µM | 5.25 | > 100 | 4.47 | > 100 | 2.4 µM | > 100 µM | 2.81 | > 100 | 3.4 | > 100 | 1.26 µM | > 100 | 40.3 | > 100 µM | 5.99 | 55.6 | 2.91 µM | > 100 µM
NC(=O)c1ccc(I)c(N=O)c1 | 28.7 µM | 66 µM | 40.7 | > 100 | 35.5 | > 100 | 19.9 µM | 57.8 µM | 16.7 | 31.8 | – | – | 62.6 µM | > 100 | 19.9 | 69.4 µM | 58.8 | > 100 | 30.5 µM | 83.1 µM
COc1ccc(-c2nc(/C=N/Nc3cc(C)nc4ccc(Cl)cc34)c(C)o2)cc1 | 1.64 µM | 3.14 µM | 1.79 | 3.49 | 2.03 | 3.84 | 1.6 µM | 3 µM | 1.74 | 3.23 | – | – | 1.85 µM | 3.49 | 1.44 | 2.93 µM | 2.35 | 5.14 | 1.74 µM | 3.36 µM
CC1CC2OC(=O)C(C)C2CC2(C)C(OC3OC(CO)C(O)C(O)C3O)OCCC12 (stereo not given) | – | > 100 µM | – | > 100 | – | > 100 | – | – | – | > 100 | – | > 100 | – | > 100 | – | > 100 µM | – | > 100 | – | > 100 µM

Reference: PubChem BioAssay (NCI)
